Measurements: patent publication US12329158B2, “Large-scale methods of uniformly coating packaging surfaces with a volatile antimicrobial to preserve food freshness” (AGROFRESH INC., priority 2013, dated 2025)
≈ marks a conversion by molar mass, not a printed value.

Tests used:
[1] = test system: B. cinerea; assay: In vitro contact assay, amended agar (Example 24); type: cell-based; details: Botrytis cinerea, 72 h; amended agar; 100% control; 3 days at 23 C; read-out: Contact MIC (mg/L) B. cinerea
Method: (§1) Contact assay: 6-well (16.5 mL volume per well) microtiter plates are used for an in vitro inhibition assay. […] A 7.5-mL volume of the amended media is added to each well of the microtiter plate. […] The plates are sealed with a clear film and incubated for 3 days at 23° C. After incubation, plates are evaluate for percent growth relative to acetone only control.

[2] = test system: P. expansum; assay: In vitro contact assay, amended agar (Example 24); type: cell-based; details: Penicillium expansum, 72 h; amended agar; 100% control; 3 days at 23 C; read-out: Contact MIC (mg/L) P. expansum
Method: as §1

[3] = test system: Escherichia coli; assay: In vitro volatile inhibition assay against bacteria (Example 8); type: cell-based; design: key: 0 = No colonies; 1 = Micro colonies not connected; 2 = Small colonies with some merging; 3 = Large colonies merging together; details: 5.00 mg per disk
Method: For testing activity against bacteria pathogens, 12-Well (7 mL volume per well) microtiter plates are used for the in vitro inhibition assay for volatile antimicrobial compounds. A 3-mL volume of full-strength LB Agar is added to each well. After cooling, 15 μL of Escherichia coli, adjusted to an optical density of 0.02 to 0.035, and further diluted 1/10 is pipetted to the center of the agar and tilted to distribute uniformly. Small Whatman #1 filter disks (Cat. No. 1001-0155) are placed, in duplicate, on the underside of a polyethylene polymerase chain reaction (PCR) plate sealing film. For determination of the minimum inhibitory concentration (MIC), Compound A is diluted in acetone, and 5 mg of compound is added to the disks. The acetone is permitted to evaporate for 5 minutes. The headspace around the Escherichia coli inoculum is then sealed inside the well by the film with the adhering disk containing the fungicide. Plates are inverted, placed over the treated disks and sealed to prevent any of the chemical from flaking from the disk and falling onto the inoculated agar. After 3 days of storage at 4° C., cultures are transferred to 23° C. for an additional 2 days, and then evaluated for colony growth relative to control.

[4] = test system: Botrytis cinerea; assay: Volatile MIC assay (Example 11); type: cell-based; details: B. cinerea
Method: (§2) A 3-mL volume of full-strength Potato Dextrose Agar (PDA) is added to each well. After cooling, 1 μL of 1×10^5 spores per mL of Botrytis cinerea, Penicillium expansum, Alternaria alternata, Glomerella cingulata, Penicillium digitatum, Monilinia fruticola, Aspergillus brasiliensis, Colletotrichum acutatum, Fusarium sambucinum, Phytophthora capsici, Geotrichum candidum, Aspergillus niger, Diplodia gossypina or Diaporthe citrii suspension is spotted onto the center of the agar. A Whatman #1 filter disk (Cat. No. 1001-0155) is placed, in duplicate, on the underside of a polyethylene PCR plate sealing film. […] The headspace around the inoculum is then sealed inside the well by the film with the adhering disk containing the fungicide by inverting the plates over the treated disks and sealing to prevent any of the chemical from flaking from the disk and falling onto the inoculated agar. After 3 days of storage at 23° C., cultures are evaluated for percent growth relative to control.

[5] = test system: Penicillium digitatum; assay: Volatile MIC assay (Example 11); type: cell-based; details: P. digitatum
Method: as §2

[6] = test system: Aspergillus niger; assay: Volatile MIC assay (Example 11); type: cell-based; details: A. niger
Method: as §2

[7] = test system: Alternaria alternata; assay: Volatile MIC assay (Example 11); type: cell-based; details: A. alternata
Method: as §2

[8] = test system: Geotrichum candidum; assay: Volatile MIC assay (Example 11); type: cell-based; details: G. candidum
Method: as §2

[9] = test system: Phytophthora capsici; assay: Volatile MIC assay (Example 11); type: cell-based; details: P. capsici
Method: as §2

[10] = test system: Aspergillus brasiliensis; assay: Volatile MIC assay (Example 11); type: cell-based; details: A. brasiliensis
Method: as §2

[11] = test system: Diplodia gossypina; assay: Volatile MIC assay (Example 11); type: cell-based; details: Lasiodiplodia theobromae, D. gossypina
Method: as §2

[12] = test system: Diaporthe citrii; assay: Volatile MIC assay (Example 11); type: cell-based; details: D. citrii
Method: as §2

[13] = test system: Colletotrichum acutatum; assay: Volatile MIC assay (Example 11); type: cell-based; details: C. acutatum
Method: as §2

[14] = test system: Penicillium expansum; assay: Volatile MIC assay (Example 11); type: cell-based; details: P. expansum
Method: as §2

[15] = test system: Fusarium sambucinum; assay: Volatile MIC assay (Example 11); type: cell-based; details: F. sambucinum
Method: as §2

[16] = test system: Monilinia fruticola; assay: Volatile MIC assay (Example 11); type: cell-based; details: M. fruticola
Method: as §2

[17] = test system: Penicillium expansum; assay: Blue mold on apple and pear, contact assay (Example 25); type: in vivo; details: Contact (dip); rate not given; day 3 at 21 C after 5 days at 1 C
Method: A 250 mL solution of each concentration is used to dip two inoculated fruits, one minute per fruit, performed in triplicate per rate. The dipped fruits are then placed back into the clamshells and then into the SnapWare container and incubated at 1° C. for 5 days. […] Volatile application of Compound A results in excellent inhibition of browning and sporulation, whereas all other active ingredients result in no or little inhibition.

OB1OCc2cc(F)ccc21 [Compound A, 5-fluoro-1,3-dihydro-1-hydroxy-2,1-benzoxaborole]
MIC [1]: < 0.08 mg/L
MIC [2]: 0.4 mg/L (≈ 2.63 µM)
Colony Rating [3]: 1
MIC [4]: 2.2 µg/mL (≈ 14.5 µM)
MIC [5]: 2.2 µg/mL (≈ 14.5 µM)
MIC [6]: 2.2 µg/mL (≈ 14.5 µM)
MIC [7]: 2.2 µg/mL (≈ 14.5 µM)
MIC [8]: 8.9 µg/mL (≈ 58.6 µM)
MIC [9]: 1.1 µg/mL (≈ 7.24 µM)
MIC [10]: 2.2 µg/mL (≈ 14.5 µM)
MIC [11]: 1.1 µg/mL (≈ 7.24 µM)
MIC [12]: 2.2 µg/mL (≈ 14.5 µM)
MIC [13]: 4.4 µg/mL (≈ 29 µM)
MIC [14]: 1.1 µg/mL (≈ 7.24 µM)
MIC [15]: 1.1 µg/mL (≈ 7.24 µM)
MIC [16]: 2.2 µg/mL (≈ 14.5 µM)
Apple Browning (mm) [17]: 9.9 mm
Apple Sporulation (mm) [17]: 2.3 mm
Pear Browning (mm) [17]: 18.9 mm
Pear Sporulation (mm) [17]: 8.4 mm
